From patent US20040180953A1, “Crystalline form of phenylethanolamine, the preparation thereof and pharmaceutical compositions comprising the same” (priority 2001, published 2004)
Structures can show the parent of a compound that is named as a salt. Blank lines part the entries; values can stand above or below the compound they belong to.

Key:
Type in all cases: physicochemical
[1] = Drying comparison of wet filtration cake in an agitated filter drier
Method: The drying, in an agitated filter drier, of a wet filtration cake of SR58611A of A form results, in less than two hours, in a change in crystalline form and in the production of a cake composed of 90% of C form. To return to the A form, it is then necessary to continue the drying at a temperature of greater than 60° C. with agitation for approximately 48 h. […] Furthermore, the shape of the crystals obtained (thick hexagonal plates) makes it possible to reduce the residual moisture content of the filtration cake to contents of less than 20% and in fact facilitates the drying of the product for the purpose of its use as medicamental active principle.

[2] = Thermodynamic stability of the polymorphic forms maintained in solution or suspension; conditions: room temperature, or more generally less than or equal to 70° C.; whatever the solvent; hydrochloride
Method: Furthermore, in addition to the possibility of having a purer and more homogeneous product, the B form can be obtained with better production efficiency, both with regard to crystallization and with regard to filtration and drying, in particular when it is prepared in propan-2-ol.

[3] = Kinetic conversion of SR58611A polymorphic mixture to B form in propan-2-ol suspension
Method: Polymorphic SR58611 hydrochloride (4.46 g) is suspended at ambient temperature in 0.3 litre of propan-2-ol. After maintaining for 70 h under isothermal conditions, the suspension is composed of SR58611A hydrochloride, B form, >96%. IR spectrum and X-ray diffraction are in agreement. Polymorphic SR58611 hydrochloride (95.2 g) is suspended at 70° C. in 0.3 litre of propan-2-ol. After maintaining for 12 h 30 under isothermal conditions, the suspension is composed of SR58611 hydrochloride, B form, >98%. IR spectrum and X-ray diffraction are in agreement.

C form content of the cake after change in crystalline form on drying ([1]; agitated filter drier, wet filtration cake, in less than two hours): 90% | further drying time needed to return to the A form ([1]; drying at greater than 60° C. with agitation): approximately 48 h | thermodynamic stability relative to the other polymorphs [2]: end up by being converted to the B form
SMILES: CCOC(=O)COc1ccc2c(c1)C[C@@H](NC[C@H](O)c1cccc(Cl)c1)CC2.Cl [A form, ethyl [(7S)-7-[(2R)-2-(3-chlorophenyl)-2-hydroxyethylamino]-5,6,7,8-tetrahydronaphth-2-yloxy]-acetate hydrochloride]

change of crystalline form on drying ([1]; drying of filtration cake): not changing crystalline form on drying | residual moisture content of the filtration cake ([1]; thick hexagonal plate crystals): less than 20% | thermodynamic stability relative to the other polymorphs [2]: the most thermodynamically stable form
SMILES: CCOC(=O)COc1ccc2c(c1)C[C@@H](NC[C@H](O)c1cccc(Cl)c1)CC2.Cl [B form, ethyl [(7S)-7-[(2R)-2-(3-chlorophenyl)-2-hydroxyethylamino]-5,6,7,8-tetrahydronaphth-2-yloxy]-acetate hydrochloride]

thermodynamic stability relative to the other polymorphs [2]: end up by being converted to the B form
SMILES: CCOC(=O)COc1ccc2c(c1)C[C@@H](NC[C@H](O)c1cccc(Cl)c1)CC2.Cl [C form, ethyl [(7S)-7-[(2R)-2-(3-chlorophenyl)-2-hydroxyethylamino]-5,6,7,8-tetrahydronaphth-2-yloxy]-acetate hydrochloride]

B form content of the suspension after conversion ([3]; suspended at 70° C. in propan-2-ol, 12 h 30 isothermal): > 98% | B form content of the suspension after conversion ([3]; suspended at ambient temperature in propan-2-ol, 70 h isothermal): > 96%
SMILES: CCOC(=O)COc1ccc2c(c1)C[C@@H](NC[C@H](O)c1cccc(Cl)c1)CC2 [Polymorphic SR58611 hydrochloride, N-[(2S)-7-ethoxycarbonylmethoxy-1,2,3,4-tetrahydronaphth-2-yl]-(2R)-(3-chlorophenyl)-2-hydroxyethanamine hydrochloride]
